The test system of assay [1] is B16 melanoma cells. Briefly: Mouse metastasis model, pre-treated MDSCs co-injected intravenously with B16 melanoma cells. Type of assay: in vivo. As to conditions: two weeks. The protocol:
(§1) The tumor growth and metastasis model were described in Zhao et al., Oncogene. 2015; 34:1938-48. MDSCs and B16 melanoma cells were collected separately. A pilot study was performed to determine the best ratio between MDSCs and B16 melanoma cells. To test the tumor growth potential, 6×10^5 pre-treated MDSCs and 2×10^5 B16 melanoma cells were mixed, centrifuged and re-suspended in 100 μL PBS, and then injected subcutaneously into the flank region of 3-month old recipient lal^+/+ mice. Tumor volume (length×width^2×π/6) was monitored every week for 4 weeks. To test the metastasis potential, 2×10^6 pre-treated MDSCs and 5×10^5 B16 melanoma cells were mixed and incubated at 37° C., 5% CO2 for 30 minutes. After the incubation, cells were centrifuged, re-suspended, and injected intravenously into 3-month old lal^+/+ mice. Two weeks after the injection, the mice were sacrificed and the lungs were inflated with 4% paraformaldehyde for examination of metastasis.
The harvested lungs were fixed with 4% paraformaldehyde in PBS at 4° C. for overnight. After fixation and embedding in paraffin, tissue sections were cut to 5 μm thick. Hematoxylin and eosin (H&E) staining and immunohistochemical (IHC) staining with anti-Ki67 antibody were performed by the Histological Core Facility, Department of Pathology and Laboratory Medicine, Indiana University. Images were taken by Olympus microscopy image system (Olympus, Tokyo, Japan).

The subject of assay [2] is B16 melanoma cells. Briefly: Transwell assay, effect of MDSC-secreted cytokines on melanoma cell proliferation. Format: cell-based, mouse. The conditions noted are these: pre-treated lal−/− Ly6G+ cells in upper chamber; 72 hours. The protocol: To observe the effect of MDSCs-secreted cytokines on melanoma cell proliferation, transwell assay was performed with 0.4-μm-pore 6.5-mm diameter Transwell plates (Corning) to separate MDSCs and B16 melanoma cells. One million pre-treated MDSCs in 200 μL media were seeded into the upper chamber of the plates, while 2×10^4 melanoma cells in 500 μL media were placed in the lower chamber. After 72 hours' culture, the transwells were removed, and the number of B16 melanoma cells in the lower chamber was counted.

The subject of assay [3] is Lewis lung cancer (LLC) cells. Briefly: In vitro co-culture of pre-treated MDSCs and LLC cells. Format: cell-based, mouse. The conditions noted are these: lal−/− Ly6G+ cells pre-treated 20 μmol/L 24 hours; 72 hours co-culture.
The test system of assay [4] is B16 melanoma cells. Briefly: In vitro co-culture of pre-treated MDSCs and B16 melanoma cells. As to conditions: lal−/− Ly6G+ cells pre-treated 20 μmol/L 24 hours; 72 hours co-culture; vs ethanol. Type of assay: cell-based, mouse. The protocol:
Ethanol or 20 μmol/L 9-HODE pre-treated (for 24 hours) MDSCs (5×10^5) and B16 melanoma cells (5×10^3) were mixed, and seeded into a well of 96-well plates in DMEM supplemented with 10% FBS. Seventy-two hours later, unattached MDSCs were removed by washing with PBS, and the number of attached B16 melanoma cells was counted. Morphologically, MDSCs are much smaller than B16 melanoma cells for exclusion.

For assay [5], the system named is B16 melanoma cells. Briefly: Mouse tumor growth model, pre-treated MDSCs co-injected subcutaneously with B16 melanoma cells. Type of assay: in vivo. Here is the method:
For in vitro PPARγ ligand treatment, 9-HODE (Cayman Chemical Co., Ann Arbor, Mich., USA) was added into the culture medium of MDSCs to a final concentration of 20 μmol/L for 24 or 48 hours. For the study of the effect of PPARγ ligand on the mTOR signaling pathway, bone marrow cells were treated with 9-HODE (20 μmol/L) for 2 hours.
as §1

Assay [6] relates to Lin− cells. Briefly: Differentiation of bone marrow Lin− cells into Ly6G+CD11b+ cells. As to conditions: lal−/− Lin− cells; 10 μmol/L, 5 days; vs ethanol. Type of assay: cell-based, mouse. The protocol: Lineage-negative (Lin−) cells were isolated from the bone marrow by removing blood lineage marker-positive cells with an immunomagnetic microbead technique. Briefly, bone marrow cells were first incubated with a cocktail of biotin-conjugated antibodies against lineage specific antigens: CD11b, GR-1, B220, TER-119, and CD3ε (Mouse Lineage Panel Kit, BD Pharmingen, San Diego, Calif., USA) at 4° C. for 15 minutes. After washed with PBS, cells were then incubated with anti-biotin microbeads at 4° C. for another 15 minutes. Subsequently, cells were subjected to magnetic bead sorting according to the manufacturer's instructions (Miltenyi Biotec.). The resulting Lin− cells were cultured in RPMI1640 with 10% FBS. Five days later, Ly6G^+CD11b^+ cells derived from Lin− cells were analyzed by flow cytometry analysis.

Assay [7] relates to CD4+ T cells. Briefly: T cell proliferation assay with BALF cells of CCSP-Tg/KO mice. Format: cell-based, mouse. As to conditions: BALF cells from doxycycline-treated CCSP-Tg/KO mice; BALF cells:CD4+ T cells 1:5, 4 days. Here is the method: To determine the immunosuppressive effects of BALF cells, BALF was harvested by PBS. After the centrifugation, the resulting cell pellets were collected and used. CD4^+ T cells were prepared and CFSE labeled as we previously described (15). Labeled CD4^+ T cells were co-cultured with BALF cells in 96-well plates pre-coated with anti-CD3 monoclonal antibody (mAb) (2 μg/mL) and anti-CD28 mAb (5 μg/mL) at 37° C., 5% CO2 for 4 days. The ratio of BALF cells:CD4^+ T cells was 1:5. Proliferation of CD4^+ T cells was evaluated as CFSE dilution by FACS.

Assay [8] relates to CD11b+Ly6G+, CD4+, CD8+, B220+ cells. Briefly: Flow cytometry of immune cells in organs of LAP-Tg/KO mice. Format: in vivo, mouse. Here is the method: Single-cell suspensions from the bone marrow, spleen, blood, liver, and lung were prepared and analyzed as described in Qu et al., Am J Pathol 2009, 174:944-956; Qu et al., Am J Pathol 2010, 176:2394-2404; Qu et al., J Immunol 2009, 182:1648-1659). Approximately 1×10^6 cells from various organs were blocked with FcR blocking antibodies in flow cytometry buffer (BD Biosciences, San Jose, Calif.) followed by incubation with isotype control or surface specific primary antibodies. Anti-CD11b (M1/70) PE-Cyanine7, anti-Ly6G (RB6-8c5) allophycocyanin-eFluor 780, anti-CD4 fluorescein isothiocyanate, anti-CD8 […], and anti-B220 allophycocyanin were purchased from e-Biosciences (San Diego, Calif.). Cells were analyzed on a LSRII machine (BD Biosciences). Data were analyzed using the BD FACStation software (CellQuest Pro version 2.2.1, BD Bio-sciences). The total gated number of positive cells (approximately 30,000 events) was calculated as the percentage of total gated viable cells. Quadrants were assigned using isotype control monoclonal antibody.

Where [9] appears, read: pre-treated lal−/− Ly6G+ cells + B16 i.v.
Where [10] appears, read: doxycycline-untreated LAP-Tg/KO triple mice (hLAL on).

Take 9-hydroxyoctadecadienoic acid [9-HODE]: in assay [1] (pre-treated lal+/+ Ly6G+ cells + B16 i.v.), the “B16 melanoma colonization in the lung” value was “did not affect B16 melanoma colonization in the lung”. Moreover, the “B16 melanoma colonies in the lungs” value in assay [1] (pre-treated lal−/− Ly6G+ cells + B16 i.v. into lal+/+ mice, vs ethanol) is “less B16 melanoma colonies”. In assay [1] (setting [9]), the “Ki67 positive cells in lung sections (IHC staining)” value is “less Ki67 positive cells” and the “neoplastic cells in lung sections (H&E staining)” value is reported as “less neoplastic cells”. Further, the “number of B16 melanoma cells in lower chamber” value in assay [2] is on record as “significantly less”. The “proliferation of LLC cells upon co-culture” value in assay [3] was “reduced proliferation of LLC cells”. In addition, the “proliferation of B16 melanoma cells upon co-culture” value in assay [4] is reported as “significantly decreased proliferation of B16 melanoma cells”. Also, the “tumor size vs ethanol-treated lal−/− Ly6G+ cells” value in assay [5] (C57BL/6 Ly6G+ cells into C57BL/6 mice, 7, 14 and 21 days post-injection) is reported as “significantly smaller”. Besides, the tumor volume in assay [5] (lal−/− Ly6G+ cells pre-treated 20 μmol/L 24 hours, co-injected s.c. with B16 cells into lal+/+ FVB/N mice, one week after injection, ethanol control 77.6±16.4) is given as 36.3±12.4 mm^3. Moreover, the “Ly6G+CD11b+ cells derived from Lin− cells” value in assay [6] is “fewer Ly6G^+CD11b^+ cells”.

B1: hLAL: human lysosomal acid lipase expressed from a doxycycline-controlled tissue-specific transgene in lal−/− mice; never administered as a protein (protein)
chain: GPKPVVFLQHGLLADSSNWVTNLANSSLGFILADAGFDVWMGNSRGNTWSRKHKTLSVSQDEFWAFSYDEMAKYDLPASINFILNKTGQEQVYYVGHSQGTTIGFIAFSQIPELAKRIKMFFALGPVASVAFCTSPMAKLGRLPDHLIKDLFGDKEFLPQSAFLKWLGTHVCTHVILKELCGNLCFLLCGFNERNLNMSRVDVYTTHSPAGTSVQNMLHWSQAVKFQKFQAFDWGSSAKNYFHYNQSYPPTYNVKDMLVPTAVWSGGHDWLADVYDVNILLTQITNLVFHESIPEWEHLDFIWGLDAPWRLYNKIINLMRKYQ
modifications: left off: small tags and cut ends
notes: human lysosomal acid lipase expressed from a doxycycline-controlled tissue-specific transgene in lal−/− mice; never administered as a protein
For B1, the “inhibition of T cell proliferation by BALF cells” value in assay [7] is recorded as “reduced inhibition on T cell proliferation”. Moreover, in assay [8] (setting [10]), the “CD11b+Ly6G+ cell expansion in blood, spleen, lung, bone marrow” value was “reduction of CD11b^+Ly6G^+ cell expansion was also observed in the blood, spleen, and lung, but not in the bone marrow”; the “percentage and total number of CD11b+Ly6G+ cells in the liver” value was “decreased to the levels of wild-type mice”. Further, the “CD4+ T cells in blood, lung and spleen” value in assay [8] (hepatocyte-specific expression, LAP-Tg/KO triple mice) is “increased CD4^+ T cells”.

(Values after US10857209B2, “Lysosomal acid lipase and PPAR gamma ligands as immune therapies for cancer treatment” (Indiana University Research and Technology Corporation, priority 2016, dated 2020).)
